These results are taken from ChEMBL document CHEMBL3751851, “Antileukemic activity of lignans and phenylpropanoids of Cinnamomum parthenoxylon” (Bioorg Med Chem Lett, 2016).

Assay [1] can be described thus: Cytotoxicity against human U937 cells after 48 hrs by CCK8 assay. The class given is functional, cell-based. The following applies: U-937, 48 h.
Assay [2] can be described thus: Cytotoxicity against human HL60 cells after 48 hrs by CCK8 assay. The class given is functional, cell-based. The following applies: HL-60, 48 h.
A further assay deals with HL-60. The assay can be described thus: Induction of apoptotic morphological changes in human HL60 cells at 50 uM after 48 hrs by Hoechst 33342 staining. The class given is functional, cell-based.
A further assay relates to U-937. The assay can be described thus: Induction of apoptotic morphological changes in human U937 cells at 50 uM after 48 hrs by Hoechst 33342 staining. The class given is functional, cell-based.
The subject of the next assay is Huh-7. The assay can be described thus: Induction of apoptosis in human HuH7 cells assessed as increase of casapase-3 activity after 1 hr by DEVD-pNA cleavage assay relative to control. The class given is functional.

pIC50: −log10 of the molar value. The source made the active and inactive calls. The calls are words filed in the database; no cut-off is given here.

Take `OC1OC[C@H](Cc2ccc3c(c2)OCO3)[C@H]1Cc1ccc2c(c1)OCO2` (stereo partly specified): the figures for the negative-log IC50 (pIC50) in assay [1] and in assay [2] were 4.80 and 4.42, respectively. In addition, the result with HL-60 and in the assay on U-937 was Active.

With `c1cc2c(cc1C[C@H]1COC[C@@H]1Cc1ccc3c(c1)OCO3)OCO2`, the pIC50 in assay [1] was 4.40; in assay [2], 4.29. Moreover, the outcome in the assay on U-937 was Active.

Turning to `O=C1OC[C@H](Cc2ccc3c(c2)OCO3)[C@H]1Cc1ccc2c(c1)OCO2` [HINOKININ], the “fold change (FC)” value in the assay on Huh-7 was 2. For the same compound, the pIC50 in assay [1] is 4.98; in assay [2], 4.50. Further, the outcome in the assay with HL-60 and with U-937 was Active.

As to `C=CCc1ccc2c(c1)OCO2` [SAFROLE], the negative-log IC50 (pIC50) is 4.28 in assay [1] and 4.27 in assay [2].

`OCC(O)Cc1ccc2c(c1)OCO2` (stereo unspecified) [SAFROLGLYCOL]: the pIC50 is 4.29 in assay [1] and 4.22 in assay [2].
